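Briefly, cells in 96-well plates were exposed to five compound concentrations for 48 h, and endpoints were estimated by linear interpolation. TGI marks complete inhibition of growth.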
Key:
Experiment in all cases: DTP human tumour cell line panel, 48 h
786-0 renal = test system: 786-0 renal
A498 renal = test system: A498 renal
A549 NSCLC = test system: A549 NSCLC
ACHN renal = test system: ACHN renal
BT-549 breast = test system: BT-549 breast
CAKI-1 renal = test system: CAKI-1 renal
CCRF-CEM leukemia = test system: CCRF-CEM leukemia
COLO 205 colon = test system: COLO 205 colon
DU-145 prostate = test system: DU-145 prostate
EKVX NSCLC = test system: EKVX NSCLC
HCC-2998 colon = test system: HCC-2998 colon
HCT-116 colon = test system: HCT-116 colon
HCT-15 colon = test system: HCT-15 colon
HOP-62 NSCLC = test system: HOP-62 NSCLC
HOP-92 NSCLC = test system: HOP-92 NSCLC
HS 578T breast = test system: HS 578T breast
HT29 colon = test system: HT29 colon
IGROV1 ovarian = test system: IGROV1 ovarian
K-562 leukemia = test system: K-562 leukemia
KM12 colon = test system: KM12 colon
LOX IMVI melanoma = test system: LOX IMVI melanoma
M14 melanoma = test system: M14 melanoma
MALME-3M melanoma = test system: MALME-3M melanoma
MDA-MB-231 breast = test system: MDA-MB-231 breast
MDA-MB-435 = test system: MDA-MB-435
MDA-N = test system: MDA-N
MOLT-4 leukemia = test system: MOLT-4 leukemia
NCI-H226 lung = test system: NCI-H226 lung
NCI-H23 lung = test system: NCI-H23 lung
NCI-H460 lung = test system: NCI-H460 lung
NCI-H522 lung = test system: NCI-H522 lung
NCI/ADR-RES ovarian = test system: NCI/ADR-RES ovarian
OVCAR-3 ovarian = test system: OVCAR-3 ovarian
OVCAR-4 ovarian = test system: OVCAR-4 ovarian
OVCAR-5 ovarian = test system: OVCAR-5 ovarian
OVCAR-8 ovarian = test system: OVCAR-8 ovarian
PC-3 prostate = test system: PC-3 prostate
RPMI-8226 leukemia = test system: RPMI-8226 leukemia
RXF 393 renal = test system: RXF 393 renal
SF-268 CNS = test system: SF-268 CNS
SF-295 CNS = test system: SF-295 CNS
SF-539 CNS = test system: SF-539 CNS
SK-MEL-28 melanoma = test system: SK-MEL-28 melanoma
SK-MEL-5 melanoma = test system: SK-MEL-5 melanoma
SK-OV-3 ovarian = test system: SK-OV-3 ovarian
SN12C renal = test system: SN12C renal
SNB-19 CNS = test system: SNB-19 CNS
SNB-75 CNS = test system: SNB-75 CNS
SR leukemia = test system: SR leukemia
SW-620 colon = test system: SW-620 colon
T-47D breast = test system: T-47D breast
TK-10 renal = test system: TK-10 renal
U251 CNS = test system: U251 CNS
UACC-257 melanoma = test system: UACC-257 melanoma
UACC-62 melanoma = test system: UACC-62 melanoma
UO-31 renal = test system: UO-31 renal
HL-60(TB) leukemia = test system: HL-60(TB) leukemia
MCF7 breast = test system: MCF7 breast
SK-MEL-2 melanoma = test system: SK-MEL-2 melanoma

In the case of `Cc1cc(-c2nc3ccccc3s2)ccc1NS(=O)(=O)O`, the TGI (786-0 renal) is reported as greater than 100 µM, the TGI (A498 renal) is reported as greater than 100 µM and the TGI (A549 NSCLC) is reported as greater than 100 µM. The TGI (ACHN renal) was greater than 100 µM, the TGI (BT-549 breast) was greater than 100 µM and the TGI (CAKI-1 renal) was greater than 18.3 µM. It also gave a TGI (CCRF-CEM leukemia) greater than 100 µM, a TGI (COLO 205 colon) greater than 11.9 µM and a TGI (DU-145 prostate) greater than 100 µM. It also gave a TGI (EKVX NSCLC) greater than 100 µM, a TGI (HCC-2998 colon) greater than 100 µM and a TGI (HCT-116 colon) greater than 100 µM. For the same molecule, the TGI (HCT-15 colon) was greater than 100 µM, the TGI (HOP-62 NSCLC) was greater than 100 µM and the TGI (HOP-92 NSCLC) was greater than 100 µM. It also gave a TGI (HS 578T breast) greater than 59.5 µM, a TGI (HT29 colon) greater than 100 µM and a TGI (IGROV1 ovarian) greater than 100 µM. It also gave a TGI (K-562 leukemia) greater than 100 µM, a TGI (KM12 colon) greater than 55.4 µM and a TGI (LOX IMVI melanoma) greater than 51.2 µM. For the same molecule, the TGI (M14 melanoma) was greater than 100 µM, the TGI (MALME-3M melanoma) was greater than 100 µM and the TGI (MDA-MB-231 breast) was greater than 100 µM. For the same molecule, the TGI (MDA-MB-435) was greater than 100 µM, the TGI (MDA-N) was greater than 100 µM and the TGI (MOLT-4 leukemia) was greater than 100 µM. It also gave a TGI (NCI-H226 lung) greater than 100 µM, a TGI (NCI-H23 lung) greater than 100 µM and a TGI (NCI-H460 lung) greater than 100 µM. The TGI (NCI-H522 lung) was greater than 67.3 µM, the TGI (NCI/ADR-RES ovarian) was greater than 100 µM and the TGI (OVCAR-3 ovarian) was greater than 100 µM. It also gave a TGI (OVCAR-4 ovarian) greater than 100 µM, a TGI (OVCAR-5 ovarian) greater than 100 µM and a TGI (OVCAR-8 ovarian) greater than 100 µM. The TGI (PC-3 prostate) was greater than 100 µM, the TGI (RPMI-8226 leukemia) was greater than 10.5 µM and the TGI (RXF 393 renal) was greater than 100 µM. It also gave a TGI (SF-268 CNS) greater than 100 µM, a TGI (SF-295 CNS) greater than 100 µM and a TGI (SF-539 CNS) greater than 100 µM. It also gave a TGI (SK-MEL-28 melanoma) greater than 100 µM, a TGI (SK-MEL-5 melanoma) greater than 100 µM and a TGI (SK-OV-3 ovarian) greater than 100 µM. It also gave a TGI (SN12C renal) greater than 100 µM, a TGI (SNB-19 CNS) greater than 100 µM and a TGI (SNB-75 CNS) greater than 100 µM. For the same molecule, the TGI (SR leukemia) was greater than 100 µM, the TGI (SW-620 colon) was greater than 100 µM and the TGI (T-47D breast) was greater than 100 µM. For the same molecule, the TGI (TK-10 renal) was greater than 100 µM, the TGI (U251 CNS) was greater than 100 µM and the TGI (UACC-257 melanoma) was greater than 100 µM. It also gave a TGI (UACC-62 melanoma) greater than 100 µM and a TGI (UO-31 renal) greater than 100 µM.

Work on `CCOC(=O)c1c(NC(=O)c2ccccc2)sc2c1CCCC2` yielded a TGI (786-0 renal) greater than 100 µM, a TGI (A498 renal) greater than 100 µM and a TGI (ACHN renal) greater than 100 µM. The TGI (BT-549 breast) was greater than 100 µM, the TGI (CAKI-1 renal) was greater than 100 µM and the TGI (CCRF-CEM leukemia) was greater than 100 µM. It also gave a TGI (COLO 205 colon) greater than 100 µM, a TGI (DU-145 prostate) greater than 100 µM and a TGI (EKVX NSCLC) greater than 100 µM. The TGI (HCT-116 colon) was greater than 100 µM, the TGI (HCT-15 colon) was greater than 100 µM and the TGI (HL-60(TB) leukemia) was greater than 100 µM. It also gave a TGI (HS 578T breast) greater than 100 µM, a TGI (HT29 colon) greater than 100 µM and a TGI (IGROV1 ovarian) greater than 100 µM. For the same molecule, the TGI (K-562 leukemia) was greater than 100 µM, the TGI (KM12 colon) was greater than 100 µM and the TGI (LOX IMVI melanoma) was greater than 100 µM. For the same molecule, the TGI (M14 melanoma) was greater than 100 µM, the TGI (MALME-3M melanoma) was greater than 100 µM and the TGI (MCF7 breast) was greater than 100 µM. It also gave a TGI (MDA-MB-231 breast) greater than 100 µM, a TGI (MDA-MB-435) greater than 100 µM and a TGI (MDA-N) greater than 100 µM. For the same molecule, the TGI (MOLT-4 leukemia) was greater than 100 µM, the TGI (NCI-H226 lung) was greater than 100 µM and the TGI (NCI-H23 lung) was greater than 100 µM. For the same molecule, the TGI (NCI/ADR-RES ovarian) was greater than 100 µM, the TGI (OVCAR-3 ovarian) was greater than 100 µM and the TGI (OVCAR-5 ovarian) was greater than 100 µM. For the same molecule, the TGI (OVCAR-8 ovarian) was greater than 100 µM, the TGI (PC-3 prostate) was greater than 100 µM and the TGI (RPMI-8226 leukemia) was greater than 100 µM. It also gave a TGI (RXF 393 renal) greater than 100 µM, a TGI (SF-268 CNS) greater than 100 µM and a TGI (SF-295 CNS) greater than 100 µM. For the same molecule, the TGI (SF-539 CNS) was greater than 100 µM, the TGI (SK-MEL-2 melanoma) was greater than 100 µM and the TGI (SK-MEL-28 melanoma) was greater than 100 µM. The TGI (SK-MEL-5 melanoma) was greater than 100 µM, the TGI (SK-OV-3 ovarian) was greater than 100 µM and the TGI (SN12C renal) was greater than 100 µM. It also gave a TGI (SNB-19 CNS) greater than 100 µM, a TGI (SNB-75 CNS) greater than 100 µM and a TGI (SW-620 colon) greater than 100 µM. For the same molecule, the TGI (T-47D breast) was greater than 100 µM, the TGI (TK-10 renal) was greater than 100 µM and the TGI (U251 CNS) was greater than 100 µM. For the same molecule, the TGI (UACC-257 melanoma) was greater than 100 µM, the TGI (UACC-62 melanoma) was greater than 100 µM and the TGI (UO-31 renal) was greater than 100 µM.
